According to the supplement of paper PMC4862054:

Legend:
Conditions in all cases: incubation time: 72 h
MDA-MB-231 [1] = experiment: normalised response (% of control), CellTiter-Glo; higher = more viable cells (100 = DMSO, 0 = benzethonium chloride kill control)
Procedure, shortened: (§1)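 Breast cancer cell lines were exposed for 72 h in 384-well plates to compound at 5 concentrations, 10-fold apart, covering a 10,000-fold range fixed for each compound. Plates were read for CellTox Green fluorescence and CellTiter-Glo luminescence and normalised to 0.1 % DMSO (100) and a positive kill control (0). Each value is the normalised signal at one concentration of the series.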

CAL-51 [2] = experiment: as above
Procedure, shortened: as §1

BT-549 [3] = experiment: as above
Procedure, shortened: as §1

CAL-85-1 [4] = experiment: as above
Procedure, shortened: as §1

MDA-MB-468 [5] = experiment: as above
Procedure, shortened: as §1

HCC1937 [6] = experiment: as above
Procedure, shortened: as §1

DU-4475 [7] = experiment: as above
Procedure, shortened: as §1

BT-474 [8] = experiment: as above
Procedure, shortened: as §1

MDA-MB-436 [9] = experiment: as above
Procedure, shortened: as §1

MCF-10A [10] = experiment: as above
Procedure, shortened: as §1

CAL-148 [11] = experiment: as above
Procedure, shortened: as §1

Hs578T [12] = experiment: as above
Procedure, shortened: as §1

HCC1599 [13] = experiment: as above
Procedure, shortened: as §1

HDQ-P1 [14] = experiment: as above
Procedure, shortened: as §1

SK-BR-3 = experiment: as above
Procedure, shortened: as §1

MFM-223 [15] = experiment: as above
Procedure, shortened: as §1

CAL-120 [16] = experiment: as above
Procedure, shortened: as §1

HCC1143 [17] = experiment: as above
Procedure, shortened: as §1

MDA-MB-453 [18] = experiment: as above
Procedure, shortened: as §1

MDA-MB-231 [19] = experiment: normalised response (% of control), CellTox Green; higher = less cell death (100 = DMSO, 0 = benzethonium chloride kill control)
Procedure, shortened: as §1

CAL-51 [20] = experiment: as above
Procedure, shortened: as §1

BT-549 [21] = experiment: as above
Procedure, shortened: as §1

CAL-85-1 [22] = experiment: as above
Procedure, shortened: as §1

MDA-MB-468 [23] = experiment: as above
Procedure, shortened: as §1

HCC1937 [24] = experiment: as above
Procedure, shortened: as §1

DU-4475 [25] = experiment: as above
Procedure, shortened: as §1

BT-474 [26] = experiment: as above
Procedure, shortened: as §1

MDA-MB-436 [27] = experiment: as above
Procedure, shortened: as §1

MCF-10A [28] = experiment: as above
Procedure, shortened: as §1

CAL-148 [29] = experiment: as above
Procedure, shortened: as §1

Hs578T [30] = experiment: as above
Procedure, shortened: as §1

HCC1599 [31] = experiment: as above
Procedure, shortened: as §1

HDQ-P1 [32] = experiment: as above
Procedure, shortened: as §1

MFM-223 [33] = experiment: as above
Procedure, shortened: as §1

CAL-120 [34] = experiment: as above
Procedure, shortened: as §1

HCC1143 [35] = experiment: as above
Procedure, shortened: as §1

MDA-MB-453 [36] = experiment: as above
Procedure, shortened: as §1

| SMILES | normalised response (MDA-MB-231 [1]) | normalised response (CAL-51 [2]) | normalised response (BT-549 [3]) | normalised response (CAL-85-1 [4]) | normalised response (MDA-MB-468 [5]) | normalised response (HCC1937 [6]) | normalised response (DU-4475 [7]) | normalised response (BT-474 [8]) | normalised response (MDA-MB-436 [9]) | normalised response (MCF-10A [10]) | normalised response (CAL-148 [11]) | normalised response (Hs578T [12]) | normalised response (HCC1599 [13]) | normalised response (HDQ-P1 [14]) | normalised response (SK-BR-3) | normalised response (MFM-223 [15]) | normalised response (CAL-120 [16]) | normalised response (HCC1143 [17]) | normalised response (MDA-MB-453 [18]) | normalised response (MDA-MB-231 [19]) | normalised response (CAL-51 [20]) | normalised response (BT-549 [21]) | normalised response (CAL-85-1 [22]) | normalised response (MDA-MB-468 [23]) | normalised response (HCC1937 [24]) | normalised response (DU-4475 [25]) | normalised response (BT-474 [26]) | normalised response (MDA-MB-436 [27]) | normalised response (MCF-10A [28]) | normalised response (CAL-148 [29]) | normalised response (Hs578T [30]) | normalised response (HCC1599 [31]) | normalised response (HDQ-P1 [32]) | normalised response (MFM-223 [33]) | normalised response (CAL-120 [34]) | normalised response (HCC1143 [35]) | normalised response (MDA-MB-453 [36]) |
| --- | --- | --- | --- | --- | --- | --- | --- | --- | --- | --- | --- | --- | --- | --- | --- | --- | --- | --- | --- | --- | --- | --- | --- | --- | --- | --- | --- | --- | --- | --- | --- | --- | --- | --- | --- | --- | --- |
| Cc1cn(-c2cc(NC(=O)c3ccc(C)c(Nc4nccc(-c5cccnc5)n4)c3)cc(C(F)(F)F)c2)cn1 [Nilotinib] (100 nM) | 94.9% | 81.9% | 115% | 107% | 103% | 95.4% | 103% | 99% | 100% | 104% | 106% | 97.6% | 106% | 105% | 96.3% | 96% | 94.4% | 94.2% | 96.3% | 110% | 96.3% | 97.5% | 105% | 123% | 103% | 102% | 102% | 103% | 99.2% | 93.5% | 85.3% | 105% | 68.1% | 61.4% | 85.9% | 109% | 85.7% |
| CN(Cc1cnc2nc(N)nc(N)c2n1)c1ccc(C(=O)N[C@@H](CCC(=O)O)C(=O)O)cc1 [Methotrexate] (500 nM) | 111% | 95.3% | 102% | 95.6% | 101% | 27.3% | 105% | 101% | 91.9% | 104% | 106% | 102% | 118% | 57% | 108% | 105% | 81.8% | 96.4% | 110% | 84.1% | 104% | 99.2% | 98.4% | 118% | 112% | 105% | 102% | 105% | 96.5% | 102% | 87.8% | 102% | 102% | 101% | 100% | 114% | 106% |
| CN(C)C(=N)NC(=N)N [Metformin] (1000 nM) | 94.1% | 65.9% | 103% | 97.7% | 90.3% | 93.2% | 88.4% | 96.3% | 108% | 77% | 102% | 102% | 95.9% | 98% | 81.9% | 83.2% | 104% | 102% | 84.3% | 63.5% | 71.1% | 70.4% | 97.9% | 61% | 93.4% | 91.6% | 92% | 71.8% | -3.22% | 95.7% | 105% | 95.2% | 70.7% | 101% | 96.5% | 85.4% | 91% |
